Experimental data: US10174016B2 (BAYER AKTIENGESELLSCHAFT, priority 2014, dated 2019)

Experiments:
human P2X3 receptor = human P2X3 receptor (Homo sapiens (Human), UniProt P56373); experiment: Intracellular calcium measurement (FLIPR, Fluo-4) of antagonist activity at human P2X3 receptors; assay type: cell-based; conditions: human P2X3, FLIPR calcium assay, agonist α,β-Me-ATP; read-out: hP2X3 IC50
Protocol: (§1) Intracellular Calcium Measurement to Assess Antagonist Activity at Human P2X3 and Human P2X2/3 Receptors
(§2) A fluorescent imaging plate reader (FLEX/FLIPR station; Molecular Devices) was used to monitor intracellular calcium levels using the calcium-chelating dye Fluo-4 (Molecular Probes). […] Cells expressing purinergic receptors P2X3 (human) or P2X2/3 (human) were plated at a density of 15,000 cells/well in collagen-coated 384-well plates approximately 20 hours before beginning the assay. […] The test compound was added in a volume of 5 μl and allowed to incubate for 30 min at 37° C. The final assay DMSO concentration is 1%. The agonist, α,β-Me-ATP, was added in a volume of 20 μl at a concentration representing the EC80 value. The fluorescence was measured for an interval of 90 sec at 2 sec intervals and analyzed based on the increase in peak relative fluorescence units (RFU) compared to the basal fluorescence. Peak fluorescence was used to determine the response to agonist obtained at each concentration of test compound by the following equation: % Response=100*(RFU(test compound)−RFU(control)/RFU(DMSO)−RFU(control))
(§3) The Examples were tested in triplicates per plate and mean values were plotted in Excel XLFit to determine IC50 values at the human P2X3 and human P2X2/3 receptors, percentage of maximal inhibition and the Hill coefficients.

human P2X2/3 receptor = human P2X2/3 receptor (Homo sapiens (Human), UniProt P56373+Q9UBL9); experiment: Intracellular calcium measurement (FLIPR, Fluo-4) of antagonist activity at human P2X2/3 receptors; assay type: cell-based; conditions: human P2X2/3, FLIPR calcium assay, agonist α,β-Me-ATP; read-out: hP2X2/3 IC50
Protocol: as §1, §2, §3

Sequence of human P2X2/3 receptor (P56373 whole entry): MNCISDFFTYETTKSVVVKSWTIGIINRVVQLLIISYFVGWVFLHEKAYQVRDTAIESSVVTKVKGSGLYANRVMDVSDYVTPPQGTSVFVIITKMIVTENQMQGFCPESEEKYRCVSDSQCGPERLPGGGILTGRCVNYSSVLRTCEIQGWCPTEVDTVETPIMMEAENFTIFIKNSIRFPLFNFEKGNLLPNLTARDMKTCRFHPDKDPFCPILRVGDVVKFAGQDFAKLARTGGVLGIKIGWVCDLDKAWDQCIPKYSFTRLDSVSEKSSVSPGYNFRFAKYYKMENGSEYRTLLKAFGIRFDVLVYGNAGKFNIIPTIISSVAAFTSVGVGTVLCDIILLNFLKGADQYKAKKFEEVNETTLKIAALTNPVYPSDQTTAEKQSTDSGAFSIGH
Sequence of human P2X2/3 receptor (Q9UBL9 whole entry): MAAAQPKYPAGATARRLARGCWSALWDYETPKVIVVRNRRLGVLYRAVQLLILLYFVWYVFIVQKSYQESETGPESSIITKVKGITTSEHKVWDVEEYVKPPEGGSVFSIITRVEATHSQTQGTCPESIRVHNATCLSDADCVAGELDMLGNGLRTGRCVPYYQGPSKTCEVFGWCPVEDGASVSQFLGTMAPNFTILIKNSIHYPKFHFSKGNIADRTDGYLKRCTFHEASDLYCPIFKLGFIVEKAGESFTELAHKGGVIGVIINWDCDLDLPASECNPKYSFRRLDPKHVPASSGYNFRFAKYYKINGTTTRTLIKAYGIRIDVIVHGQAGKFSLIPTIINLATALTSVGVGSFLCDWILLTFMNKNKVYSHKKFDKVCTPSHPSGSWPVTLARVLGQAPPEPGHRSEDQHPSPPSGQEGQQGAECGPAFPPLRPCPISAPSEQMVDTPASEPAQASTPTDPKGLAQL
Sequence of human P2X3 receptor (P56373 whole entry): as the sequence (P56373 whole entry) above

| SMILES | IC50 (human P2X3 receptor) | IC50 (human P2X2/3 receptor) |
| --- | --- | --- |
| Cc1ccc([C@@H](C)NC(=O)c2cc(OC3COC3)cc(-c3ncc(C)s3)c2)nn1 [Example 47, N-[(1R)-1-(6-Methylpyridazin-3-yl)ethyl]-3-(5-methyl-1,3-thiazol-2-yl)-5-(oxetan-3-yloxy)benzamide] | 0.082 µM | 0.621 µM |
| Cc1cnc(-c2cc(OC3COC3)cc(C(=O)NC(C)c3ncc(F)cc3Cl)c2)s1 (centres unmarked) [Example 49, N-[1-(3-Chloro-5-fluoropyridin-2-yl)ethyl]-3-(5-methyl-1,3-thiazol-2-yl)-5-(oxetan-3-yloxy)benzamide] | 0.132 µM | 1.53 µM |
| Cc1cnc(-c2cc(OC3COC3)cc(C(=O)N[C@H](C)c3nnc(C)s3)c2)s1 [Example 50, N-[(1R)-1-(5-Methyl-1,3,4-thiadiazol-2-yl)ethyl]-3-(5-methyl-1,3-thiazol-2-yl)-5-(oxetan-3-yloxy)benzamide] | 0.077 µM | 0.982 µM |
| Cc1cnc(-c2cc(OC3COC3)cc(C(=O)NCc3ccc(C(F)(F)F)nn3)c2)s1 [Example 52, 3-(5-methyl-1,3-thiazol-2-yl)-5-(oxetan-3-yloxy)-N-{[6-(trifluoromethyl)pyridazin-3-yl]methyl}benzamide] | 0.194 µM | 0.564 µM |
| CC[C@@H](NC(=O)c1cc(OC2COC2)cc(-c2ncc(C)s2)c1)c1cnc(C(F)(F)F)nc1 [Example 53, 3-(5-methyl-1,3-thiazol-2-yl)-5-(oxetan-3-yloxy)-N-{(1R)-1-[2-(trifluoromethyl)pyrimidin-5-yl]propyl}benzamide] | 0.318 µM | 2.74 µM |
| Cc1cnc(CNC(=O)c2cc(OC[C@@H]3CCCO3)cc(-c3ncc(C)s3)c2)cn1 [Example 56, N-[(5-Methylpyrazin-2-yl)methyl]-3-(5-methyl-1,3-thiazol-2-yl)-5-[(2S)-tetrahydrofuran-2-ylmethoxy]benzamide] | 0.148 µM | ≥ 10 µM |
| Cc1cnc([C@@H](C)NC(=O)c2cc(OC[C@@H]3CCCO3)cc(-c3ncc(C)s3)c2)cn1 [Example 57, N-[(1R)-1-(5-Methylpyrazin-2-yl)ethyl]-3-(5-methyl-1,3-thiazol-2-yl)-5-[(2S)-tetrahydrofuran-2-ylmethoxy]benzamide] | 0.025 µM | 2.84 µM |
| Cc1cnc(-c2cc(OC[C@@H]3CCCO3)cc(C(=O)N[C@H](C)c3cnc(C(F)(F)F)nc3)c2)s1 [Example 58, 3-(5-Methyl-1,3-thiazol-2-yl)-5-[(2S)-tetrahydrofuran-2-ylmethoxy]-N-{(1R)-1-[2-(trifluoromethyl)pyrimidin-5-yl]ethyl}benzamide] | 0.004 µM | 0.461 µM |
| Cc1ccc([C@@H](C)NC(=O)c2cc(OC[C@@H]3CCCO3)cc(-c3ncc(C)s3)c2)nn1 [Example 59, N-[(1R)-1-(6-Methylpyridazin-3-yl)ethyl]-3-(5-methyl-1,3-thiazol-2-yl)-5-[(2S)-tetrahydrofuran-2-ylmethoxy]benzamide] | 0.013 µM | 0.507 µM |
| Cc1cnc(-c2cc(OC[C@@H]3CCCO3)cc(C(=O)N[C@H](C)c3ccc(C(F)(F)F)nn3)c2)s1 [Example 60, 3-(5-Methyl-1,3-thiazol-2-yl)-5-[(2S)-tetrahydrofuran-2-ylmethoxy]-N-{(1R)-1-[6-(trifluoromethyl)pyridazin-3-yl]ethyl}benzamide] | 0.011 µM | 0.578 µM |
| Cc1ccc([C@@H](C)NC(=O)c2cc(OC[C@H]3CCCO3)cc(-c3ncc(C)s3)c2)nn1 [Example 61, N-[(1R)-1-(6-methylpyridazin-3-yl)ethyl]-3-(5-methyl-1,3-thiazol-2-yl)-5-[(2R)-tetrahydrofuran-2-ylmethoxy]benzamide] | 0.014 µM | 0.428 µM |
| Cc1ccc(CNC(=O)c2cc(OC[C@H]3CCCO3)cc(-c3ncc(C)s3)c2)nn1 [Example 62, N-[(6-Methylpyridazin-3-yl)methyl]-3-(5-methyl-1,3-thiazol-2-yl)-5-[(2R)-tetrahydrofuran-2-ylmethoxy]benzamide] | 0.085 µM | 1.44 µM |
| Cc1cnc(-c2cc(OC[C@H]3CCCO3)cc(C(=O)N[C@H](C)c3cnc(C(F)(F)F)nc3)c2)s1 [Example 63, 3-(5-Methyl-1,3-thiazol-2-yl)-5-[(2R)-tetrahydrofuran-2-ylmethoxy]-N-{(1R)-1-[2-(trifluoromethyl)pyrimidin-5-yl]ethyl}benzamide] | 0.004 µM | 0.118 µM |
| Cc1cnc([C@@H](C)NC(=O)c2cc(OC[C@H]3CCCO3)cc(-c3ncc(C)s3)c2)cn1 [Example 64, N-[(1R)-1-(5-methylpyrazin-2-yl)ethyl]-3-(5-methyl-1,3-thiazol-2-yl)-5-[(2R)-tetrahydrofuran-2-ylmethoxy]benzamide] | 0.053 µM | 0.984 µM |
| Cc1cnc(-c2cc(OC[C@H]3CCOC3)cc(C(=O)NC(C)c3ncc(Cl)cc3F)c2)s1 (stereo partly drawn) [Example 65, N-[1-(5-Chloro-3-fluoropyridin-2-yl)ethyl]-3-(5-methyL-1,3-thiazol-2-yl)-5-[(3S)-tetrahydrofuran-3-ylmethoxy]benzamide] | 0.003 µM | 0.054 µM |
| Cc1ccc(CNC(=O)c2cc(OC[C@H]3CCOC3)cc(-c3ncc(C)s3)c2)nn1 [Example 66, N-[(6-Methylpyridazin-3-yl)methyl]-3-(5-methyl-1,3-thiazol-2-yl)-5-[(3S)-tetrahydrofuran-3-ylmethoxy]benzamide] | 0.035 µM | 6.29 µM |
| Cc1cnc(CNC(=O)c2cc(OC[C@H]3CCOC3)cc(-c3ncc(C)s3)c2)cn1 [Example 67, N-[(5-Methylpyrazin-2-yl)methyl]-3-(5-methyl-1,3-thiazol-2-yl)-5-[(3S)-tetrahydrofuran-3-ylmethoxy]benzamide] | 0.186 µM | ≥ 10 µM |
| Cc1cnc([C@@H](C)NC(=O)c2cc(OC[C@H]3CCOC3)cc(-c3ncc(C)s3)c2)cn1 [Example 68, N-[(1R)-1-(5-Methylpyrazin-2-yl)ethyl]-3-(5-methyl-1,3-thiazol-2-yl)-5-[(3S)-tetrahydrofuran-3-ylmethoxy]benzamide] | 0.044 µM | 1.62 µM |
| Cc1cnc(-c2cc(OC[C@H]3CCOC3)cc(C(=O)N[C@H](C)c3cnc(C(F)(F)F)nc3)c2)s1 [Example 70, 3-(5-Methyl-1,3-thiazol-2-yl)-5-[(3S)-tetrahydrofuran-3-ylmethoxy]-N-[(1R)-1-[2-(trifluoromethyl)pyrimidin-5-yl]ethyl]benzamide] | 0.003 µM | 0.078 µM |
| Cc1ccc([C@@H](C)NC(=O)c2cc(OC[C@H]3CCOC3)cc(-c3ncc(C)s3)c2)nn1 [Example 71, N-[(1R)-1-(6-Methylpyridazin-3-yl)ethyl]-3-(5-methyl-1,3-thiazol-2-yl)-5-[(3S)-tetrahydrofuran-3-ylmethoxy]benzamide] | 0.015 µM | 0.315 µM |
| Cc1cnc(-c2cc(OC[C@H]3CCOC3)cc(C(=O)N[C@H](C)c3ccc(C(F)(F)F)nn3)c2)s1 [Example 72, 3-(5-Methyl-1,3-thiazol-2-yl)-5-[(3S)-tetrahydrofuran-3-ylmethoxy]-N-[(1R)-1-[6-(trifluoromethyl)pyridazin-3-yl]ethyl]benzamide] | 0.011 µM | 0.33 µM |
| Cc1cnc(-c2cc(OC[C@@H]3CCOC3)cc(C(=O)N[C@H](C)c3cnc(C(F)(F)F)nc3)c2)s1 [Example 73, 3-(5-Methyl-1,3-thiazol-2-yl)-5-[(3R)-tetrahydrofuran-3-ylmethoxy]-N-[(1R)-1-[2-(trifluoromethyl)pyrimidin-5-yl]ethyl]benzamide] | 0.004 µM | 0.101 µM |
